For 72 compounds, activation results are on record in patent US20250066389A1, “HETEROCYCLIC AMIDES AND METHODS OF USING THE SAME” (Rgenta Therapeutics, Inc., priority 2021, published 2025).

Molecules are shown by their SMILES. Some results are limits rather than exact numbers.

The subject of this test is PMS1. Briefly: Mini-Gene Reporter Assay—PMS1 (firefly luciferase mini-gene reporter transiently transfected into HEK293 cells). To be noted: Homo sapiens; at 5 uM; mini-gene firefly luciferase reporter in HEK293 cells; read-out: PMS1 % Effect at 5 uM. Format: cell-based. Summed up: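 Luminescence (RLU) read-out of exon inclusion: compound dilutions, tested in duplicate, act on transiently transfected HEK293 cells carrying a firefly luciferase reporter fused downstream of the PMS1 skipped-exon region. Potency derived by Levenberg-Marquardt curve fitting, with percent effect at 5 μM.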
A general note: Reporter assays use an easily measured gene product as a stand-in for the process of interest.

Take `CCOc1cc2nn(C)cc2cc1C(=O)Nc1cnc(N2CCC(n3ncc4c3CNC4)CC2)nc1` [Compound 414]: the activation at 5 µM is < 50%.

As for `CCOc1cc2nn(C)cc2cc1C(=O)Nc1cnc(NC2CCCNC2C)nc1` (stereo not drawn) [Compound 415], the activation at 5 µM is < 50%.

Regarding `CCOc1cc2nn(C)cc2cc1C(=O)Nc1cnc(N2CC(N)CC2C)nc1` (stereo not drawn) [Compound 416], the activation at 5 µM is 50 to 75%. For `CCOc1cc2nn(C)cc2cc1C(=O)Nc1cnc(NCCC2CC(F)(F)CN2)nc1` (stereo not drawn) [Compound 417] the value was < 50%; for `CCOc1cc2nn(C)cc2cc1C(=O)Nc1cnc(N2CCC(N)(c3cccc(F)c3)C2)nc1` (stereo not drawn) [Compound 418], < 50%; for `CCOc1cc2nn(C)cc2cc1C(=O)Nc1cnc(NCC(N)c2ccc(F)cc2)nc1` (stereo not drawn) [Compound 419], < 50%. The same measure for `CCOc1cc2nn(C)cc2cc1C(=O)Nc1cnc(NCC2(CN)CCC2)nc1` [Compound 421]: < 50%; for `CCOc1cc2nn(C)cc2cc1C(=O)Nc1cnc(N2CC(N)C(C)(C)C2)nc1` (stereo not drawn) [Compound 422]: < 50%; for `CCOc1cc2nn(C)cc2cc1C(=O)Nc1cnc(NCC2NCCc3sccc32)nc1` (stereo not drawn) [Compound 423]: < 50%.

In the case of `CCOc1cc2nn(C)cc2cc1C(=O)Nc1cnc(NC(C)CNC)nc1` (stereo not drawn) [Compound 424], the activation at 5 µM was < 50%.

As for `CCOc1cc2nn(C)cc2cc1C(=O)Nc1cnc(NCC[C@@H]2C[C@H](OC)CN2)nc1` [Compound 425], the activation at 5 µM was < 50%. For the compound `CCOc1cc2nn(C)cc2cc1C(=O)Nc1cnc(NCC2=CCNCC2)nc1` [Compound 426], the activation at 5 µM is < 50%. Regarding `CCOc1cc2nn(C)cc2cc1C(=O)Nc1cnc(N2C[C@@H](F)C[C@H]2CN)nc1` [Compound 427], the activation at 5 µM was < 50%. For `CCOc1cc2nn(C)cc2cc1C(=O)Nc1cnc(NCC2CCCCNC2)nc1` (stereo not drawn) [Compound 428] the value was < 50%.

In the case of `CCOc1cc2nn(C)cc2cc1C(=O)Nc1cnc(N2CCC3(CNCCO3)C2)nc1` (stereo not drawn) [Compound 429], the activation at 5 µM is < 50%. For `CCOc1cc2nn(C)cc2cc1C(=O)Nc1cnc(NCC2CCNCC2(F)F)nc1` (stereo not drawn) [Compound 431] the value was < 50%. For `CCOc1cc2nn(C)cc2cc1C(=O)Nc1cnc(N2C[C@H](O)C[C@@H]2CN)nc1` [Compound 433] the value was < 50%. For `CCOc1cc2nn(C)cc2cc1C(=O)Nc1cnc(NCC2CCNCC2C)nc1` (stereo not drawn) [Compound 434] the value was < 50%; for `CCOc1cc2nn(C)cc2cc1C(=O)Nc1cnc(N2CCCC(C)(CN)C2)nc1` (stereo not drawn) [Compound 435], < 50%. For `CCOc1cc2nn(C)cc2cc1C(=O)Nc1cnc(N2CC3(CNCCO3)C2)nc1` [Compound 436], the activation at 5 µM was < 50%. Turning to `CCOc1cc2nn(C)cc2cc1C(=O)Nc1cnc(N2CCCC2CNC)nc1` (stereo not drawn) [Compound 437], the activation at 5 µM was < 50%. `CCOc1cc2nn(C)cc2cc1C(=O)Nc1cnc(N(C)C[C@H]2CCCN2)nc1` [Compound 438]: the activation at 5 µM is < 50%. The same measure for `CCOc1cc2nn(C)cc2cc1C(=O)Nc1cnc(NCC2(C)CCNC2)nc1` (stereo not drawn) [Compound 439]: < 50%; for `CCOc1cc2nn(C)cc2cc1C(=O)Nc1cnc(N2C[C@@H](F)C[C@H]2CNC)nc1` [Compound 440]: < 50%.

As to `CCOc1cc2nn(C)cc2cc1C(=O)Nc1cnc(N2CCCC3(CCNC3)C2)nc1` (stereo not drawn) [Compound 441], the activation at 5 µM was < 50%. For `CCOc1cc2nn(C)cc2cc1C(=O)Nc1cnc(N2CCC3(CCCN3)CC2)nc1` [Compound 442] the value was > 75%. Turning to `CCOc1cc2nn(C)cc2cc1C(=O)Nc1cnc(NC[C@@H]2CC(F)(F)CN2)nc1` [Compound 443], the activation at 5 µM was < 50%.

`CCOc1cc2nn(C)cc2cc1C(=O)Nc1cnc(N2CC(N)C3(CC3)C2)nc1` (stereo not drawn) [Compound 444]: the activation at 5 µM is < 50%. For `CCOc1cc2nn(C)cc2cc1C(=O)Nc1cnc(NCc2ccc(CN)cc2F)nc1` [Compound 445] the value was < 50%; for `CCOc1cc2nn(C)cc2cc1C(=O)Nc1cnc(N(C)CC2CCCN2)nc1` (stereo not drawn) [Compound 446], < 50%; for `CCOc1cc2nn(C)cc2cc1C(=O)Nc1cnc(NCCC2(O)CNC2)nc1` [Compound 447], < 50%. For `CCOc1cc2nn(C)cc2cc1C(=O)Nc1cnc(N(C)CCN2CCNCC2)nc1` [Compound 448] the value was < 50%; for `CCOc1cc2nn(C)cc2cc1C(=O)Nc1cnc(N(C)CC2CCNC2)nc1` (stereo not drawn) [Compound 449], < 50%; for `CCOc1cc2nn(C)cc2cc1C(=O)Nc1cnc(NC[C@H]2CCCNC2)nc1` [Compound 450], < 50%. With `CCOc1cc2nn(C)cc2cc1C(=O)Nc1cnc(NCc2ccccc2N2CCNCC2)nc1` [Compound 451], the activation at 5 µM was < 50%. The same measure for `CCOc1cc2nn(C)cc2cc1C(=O)Nc1cnc(N2CCC3(CC2)CNCCO3)nc1` [Compound 452]: < 50%; for `CCOc1cc2nn(C)cc2cc1C(=O)Nc1cnc(N2CC(C)NCC2C)nc1` (stereo not drawn) [Compound 453]: 50 to 75%; for `CCOc1cc2nn(C)cc2cc1C(=O)Nc1cnc(N2CCC3(CCNCC3)C2)nc1` [Compound 454]: < 50%.

As to `CCOc1cc2nn(C)cc2cc1C(=O)Nc1cnc(N2CCCC(CCN)C2)nc1` (stereo not drawn) [Compound 455], the activation at 5 µM was < 50%. The same measure for `CCOc1cc2nn(C)cc2cc1C(=O)Nc1cnc(N2CCOC3(CCNCC3)C2)nc1` [Compound 459]: < 50%; for `CCOc1cc2nn(C)cc2cc1C(=O)Nc1cnc(NCCC2CCCCN2)nc1` (stereo not drawn) [Compound 460]: < 50%. For `CCOc1cc2nn(C)cc2cc1C(=O)Nc1cnc(NCCC2CCCNC2)nc1` (stereo not drawn) [Compound 462] the value was < 50%. The same measure for `CCOc1cc2nn(C)cc2cc1C(=O)Nc1cnc(N2CCC(NC)C2)nc1` (stereo not drawn) [Compound 463]: > 75%. For the compound `CCOc1cc2nn(C)cc2cc1C(=O)Nc1cnc(N2C[C@H]3CNC[C@H]3C2)nc1` [Compound 464], the activation at 5 µM is 50 to 75%. Consider `CCOc1cc2nn(C)cc2cc1C(=O)Nc1cnc(NC[C@@H]2CCNC2)nc1` [Compound 465], for which the activation at 5 µM is < 50%.

Turning to `CCOc1cc2nn(C)cc2cc1C(=O)Nc1cnc(N2CCCC(NC)C2)nc1` (stereo not drawn) [Compound 466], the activation at 5 µM was < 50%. For `CCOc1cc2nn(C)cc2cc1C(=O)Nc1cnc(N2C[C@@H]3C[C@H]2CN3)nc1` [Compound 467] the value was < 50%; for `CCOc1cc2nn(C)cc2cc1C(=O)Nc1cnc(NCC2CNC2)nc1` [Compound 468], < 50%. Take `CCOc1cc2nn(C)cc2cc1C(=O)Nc1cnc(NCC2CCCCN2)nc1` (stereo not drawn) [Compound 469]: the activation at 5 µM was < 50%.

For the compound `CCOc1cc2nn(C)cc2cc1C(=O)Nc1cnc(NC[C@@H]2CCCN2)nc1` [Compound 470], the activation at 5 µM is < 50%. As to `CCOc1cc2nn(C)cc2cc1C(=O)Nc1cnc(NCCNC)nc1` [Compound 472], the activation at 5 µM is < 50%. The same measure for `CCOc1cc2nn(C)cc2cc1C(=O)Nc1cnc(N2CCC(NC)CC2)nc1` [Compound 473]: < 50%; for `CCOc1cc2nn(C)cc2cc1C(=O)Nc1cnc(NC[C@H]2CCCN2)nc1` [Compound 475]: < 50%.

As for `CCOc1cc2nn(C)cc2cc1C(=O)Nc1cnc(N2CCNCC2)nc1` [Compound 477], the activation at 5 µM lay in the range of 50 to 75%. For `CCOc1cc2nn(C)cc2cc1C(=O)Nc1cnc(N(C)C2CCNCC2)nc1` [Compound 478] the value was 50 to 75%; for `CCOc1cc2nn(C)cc2cc1C(=O)Nc1cnc(N2CC(N)C2)nc1` [Compound 479], < 50%. With `CCOc1cc2nn(C)cc2cc1C(=O)Nc1cnc(N2CCN[C@@H](C)C2)nc1` [Compound 480], the activation at 5 µM is > 75%. For the compound `CCOc1cc2nn(C)cc2cc1C(=O)Nc1cnc(N2CCC(N)CC2)nc1` [Compound 481], the activation at 5 µM is < 50%.

Regarding `CCOc1cc2nn(C)cc2cc1C(=O)Nc1cnc(NCC2CCCNC2)nc1` (stereo not drawn) [Compound 483], the activation at 5 µM was < 50%. Consider `CCOc1cc2nn(C)cc2cc1C(=O)Nc1cnc(N(C)CCNC)nc1` [Compound 484], for which the activation at 5 µM was < 50%.

Consider `CCOc1cc2nn(C)cc2cc1C(=O)Nc1cnc(N2CCCNCC2)nc1` [Compound 485], for which the activation at 5 µM is < 50%. `CCOc1cc2nn(C)cc2cc1C(=O)Nc1cnc(N2CCNC(C)C2)nc1` (stereo not drawn) [Compound 487]: the activation at 5 µM is > 75%.

Regarding `CCOc1cn2nc(C)cc2cc1C(=O)Nc1cnc(NCC2(F)CNCCOC2)cn1` (stereo not drawn) [Compound 489], the activation at 5 µM is < 50%. The same measure for `CCOc1cn2nc(C)cc2cc1C(=O)Nc1cnc(N2CCNC(CC(F)(F)F)C2)cn1` (stereo not drawn) [Compound 490]: 50 to 75%; for `CCOc1cn2nc(C)cc2cc1C(=O)Nc1cnc(N2CC3CCC2C2CNCC32)cn1` (stereo not drawn) [Compound 492]: 50 to 75%. For `CCOc1cn2nc(C)cc2cc1C(=O)Nc1cnc(NCC2(F)CC(N)C2)cn1` (stereo not drawn) [Compound 493] the value was < 50%.

As to `CCOc1cn2nc(C)cc2cc1C(=O)Nc1cnc(NC2CCCCC23CCNC3)cn1` (stereo not drawn) [Compound 494], the activation at 5 µM was < 50%.

Take `CCOc1cn2nc(C)cc2cc1C(=O)Nc1cnc(NCC2CNCC23CC3)cn1` (stereo not drawn) [Compound 496]: the activation at 5 µM was > 75%.

Consider `CCOc1cn2nc(C)cc2cc1C(=O)Nc1cnc(NC2CCC3CC2CN3)cn1` (stereo not drawn) [Compound 497], for which the activation at 5 µM was > 75%. For `CCOc1cn2nc(C)cc2cc1C(=O)Nc1cnc(N2CCCCC3(CCNC3)C2)cn1` (stereo not drawn) [Compound 499] the value was < 50%; for `CCOc1cn2nc(C)cc2cc1C(=O)Nc1cnc(NC2CNCC2(C)C)cn1` (stereo not drawn) [Compound 500], < 50%. `CCOc1cn2nc(C)cc2cc1C(=O)Nc1cnc(N2CCC(N)(CC)CC2)cn1` [Compound 502]: the activation at 5 µM was > 75%.
